Experimental findings from publication PMC11762957, “Rescue of Mutant CFTR Channel Activity by Investigational Co-Potentiator Therapy” (Biomedicines, 2025) are described below.

One may read the EC50 as the concentration giving half of the maximal effect.

Holding throughout (format): cell-based
One experiment addresses T1, p.Gly1349Asp-CFTR (Homo sapiens, UniProt P13569, G1349D).
T1 construct: expressed in transfected cells; host or cells: CFBE41o- cells stably expressing HS-YFP, transient transfection of pcDNA5-CFTR
Put plainly: HS-YFP assay, CFBE41o- cells transiently transfected with p.Gly1349Asp-CFTR. Conditions: Fsk 5 μM. Here is the method: (§1) Site-directed mutagenesis was performed using KOD HOT start DNA polymerase (#71086-3, Sigma-Aldrich, St. Louis, MO, USA), according to manufacturer’s instructions, to insert variants under study (c.613C>T or p.Pro205Ser; c.1645A>C or p.Ser549Arg; c.1647T>G or p.Ser549Arg; c.1652G>A or p.Gly551Asp; c.2834C>T or p.Ser945Leu; and c.4046G>A or p.Gly1349Asp) into CFTR cDNA cloned in the pcDNA5 expression vector. After confirmation by Sanger sequencing, CFBE41o^− cells expressing HS-YFP seeded onto 96-well plates were transfected with 0.1 µg per well of the indicated plasmid. Lipofectamine 3000 (#L3000015, ThermoFischer Scientific, Waltham, MA, USA) was used as the transfection agent diluted in Opti-MEM reduced serum medium (#31985070, ThermoFischer Scientific, Waltham, MA, USA) according to manufacturer’s instructions.
(§2) CFTR activity was determined by the HS-YFP microfluorimetric assay (described in detail in previous studies) using CFBE41o^− cells expressing HS-YFP together with stably expressed p.Arg334Trp-CFTR or transiently transfected with CFTR cDNA (variants p.Pro205Ser, p.Ser549Arg, p.Gly551Asp, p.Ser945Leu, and p.Gly1349Asp) cloned into pcDNA5. Briefly, cells were washed with phosphate-buffered saline (PBS; in mM: 137 NaCl, 2.7 KCl, 8.1 Na2HPO4, 1.5 KH2PO4, 1 CaCl2, and 0.5 MgCl2) and then incubated for 30 min at 37 °C with 60 μL of PBS plus Fsk (5 μM) and test compound(s) to stimulate CFTR channels. DMSO (vehicle) and VX-770 (1 μM) were used as negative and positive controls, respectively. All conditions were performed in triplicate on each plate. Thereafter, cells were transferred to a microplate reader (Tecan Infinite 200 Pro) equipped with high-quality excitation (485 ± 20 nm) and emission (535 ± 25 nm) filters for YFP. Each reading consisted of a continuous 14 s fluorescence recording with 2 s before and 12 s after injection of 165 μL of an iodide-containing solution (PBS with Cl^− replaced by I^−; final I^− concentration: 100 mM). Data were normalized to the initial background-subtracted fluorescence. To determine the I^− influx rate, the final 11 s of the data for each well were fitted with an exponential function to extrapolate the initial slope (dF/dt).
(§3) As CFTR variants with similar defect(s) may respond differently to the same treatment(s), we assessed whether LSO-24 or its derivative LSO-150, alone or in combination(s), could rescue CFTR activity for other variants with gating/conductance defects. […] After 24 h, the cells were acutely stimulated with Fsk plus test compound(s), and the cell fluorescence was recorded before and after the addition of an I^−-containing solution. […]

A further experiment has as its target T2, p.Gly551Asp-CFTR (Homo sapiens, UniProt P13569, G551D).
T2 construct: expressed in transfected cells; host or cells: CFBE41o- cells stably expressing HS-YFP, transient transfection of pcDNA5-CFTR
Description: HS-YFP assay, CFBE41o- cells transiently transfected with p.Gly551Asp-CFTR. Conditions: LSO-24 5 μM, LSO-150 3 μM, VX-770 1 μM, ABBV-3067 10 μM, Fsk 5 μM. Here is the method:
as §1
(§4) CFTR activity was determined by the HS-YFP microfluorimetric assay (described in detail in previous studies) using CFBE41o^− cells expressing HS-YFP together with stably expressed p.Arg334Trp-CFTR or transiently transfected with CFTR cDNA (variants p.Pro205Ser, p.Ser549Arg, p.Gly551Asp, p.Ser945Leu, and p.Gly1349Asp) cloned into pcDNA5. […] Thereafter, cells were transferred to a microplate reader (Tecan Infinite 200 Pro) equipped with high-quality excitation (485 ± 20 nm) and emission (535 ± 25 nm) filters for YFP. Each reading consisted of a continuous 14 s fluorescence recording with 2 s before and 12 s after injection of 165 μL of an iodide-containing solution (PBS with Cl^− replaced by I^−; final I^− concentration: 100 mM). Data were normalized to the initial background-subtracted fluorescence. […]
as §3

In the next experiment the target is T3, p.Ser945Leu-CFTR (Homo sapiens, UniProt P13569, S945L).
T3 construct: expressed in transfected cells; host or cells: CFBE41o- cells stably expressing HS-YFP, transient transfection of pcDNA5-CFTR
T3 sequence (P13569 whole entry S945L): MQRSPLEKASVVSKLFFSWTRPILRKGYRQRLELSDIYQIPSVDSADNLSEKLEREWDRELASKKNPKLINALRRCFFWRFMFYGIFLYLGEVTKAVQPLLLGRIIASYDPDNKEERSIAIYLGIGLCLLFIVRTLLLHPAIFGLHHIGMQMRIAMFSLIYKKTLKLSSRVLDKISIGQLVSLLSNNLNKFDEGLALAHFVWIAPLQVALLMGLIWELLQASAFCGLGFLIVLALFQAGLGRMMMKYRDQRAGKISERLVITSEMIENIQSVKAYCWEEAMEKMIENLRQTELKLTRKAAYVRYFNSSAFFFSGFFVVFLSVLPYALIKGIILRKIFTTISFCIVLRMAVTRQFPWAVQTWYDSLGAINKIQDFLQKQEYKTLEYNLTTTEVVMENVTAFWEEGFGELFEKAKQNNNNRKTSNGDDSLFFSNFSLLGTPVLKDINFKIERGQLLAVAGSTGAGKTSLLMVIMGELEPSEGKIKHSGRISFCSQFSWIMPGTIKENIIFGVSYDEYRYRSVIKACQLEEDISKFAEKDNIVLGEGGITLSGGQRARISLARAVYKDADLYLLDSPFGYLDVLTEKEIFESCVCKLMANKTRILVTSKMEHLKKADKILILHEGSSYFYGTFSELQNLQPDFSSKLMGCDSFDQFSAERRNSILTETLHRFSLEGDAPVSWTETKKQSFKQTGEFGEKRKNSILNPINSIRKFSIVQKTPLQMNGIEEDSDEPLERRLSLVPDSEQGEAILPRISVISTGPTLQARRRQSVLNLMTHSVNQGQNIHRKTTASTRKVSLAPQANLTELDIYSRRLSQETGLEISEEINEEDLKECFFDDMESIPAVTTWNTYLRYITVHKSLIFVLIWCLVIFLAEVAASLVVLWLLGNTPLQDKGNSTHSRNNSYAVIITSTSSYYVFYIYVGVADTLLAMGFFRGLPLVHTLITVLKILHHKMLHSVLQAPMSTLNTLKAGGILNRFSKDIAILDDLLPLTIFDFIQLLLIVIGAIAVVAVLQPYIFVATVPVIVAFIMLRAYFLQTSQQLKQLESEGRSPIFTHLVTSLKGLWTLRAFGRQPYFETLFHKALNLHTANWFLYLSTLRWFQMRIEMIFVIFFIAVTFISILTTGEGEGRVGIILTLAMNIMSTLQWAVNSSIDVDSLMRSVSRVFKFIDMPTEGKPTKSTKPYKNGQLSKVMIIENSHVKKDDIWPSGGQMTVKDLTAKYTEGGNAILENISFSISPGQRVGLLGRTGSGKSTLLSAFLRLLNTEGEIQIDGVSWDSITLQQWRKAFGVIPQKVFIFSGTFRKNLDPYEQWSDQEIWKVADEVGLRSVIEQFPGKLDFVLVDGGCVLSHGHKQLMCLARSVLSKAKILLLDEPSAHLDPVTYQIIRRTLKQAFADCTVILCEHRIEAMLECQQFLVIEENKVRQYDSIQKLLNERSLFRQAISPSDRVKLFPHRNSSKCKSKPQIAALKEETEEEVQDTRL
Description: HS-YFP assay, CFBE41o- cells transiently transfected with p.Ser945Leu-CFTR. Particulars: LSO-24 5 μM, LSO-150 3 μM, Fsk 5 μM. As for the experimental part: Site-directed mutagenesis was performed using KOD HOT start DNA polymerase (#71086-3, Sigma-Aldrich, St. Louis, MO, USA), according to manufacturer’s instructions, to insert variants under study (c.613C>T or p.Pro205Ser; c.1645A>C or p.Ser549Arg; c.1647T>G or p.Ser549Arg; c.1652G>A or p.Gly551Asp; c.2834C>T or p.Ser945Leu; and c.4046G>A or p.Gly1349Asp) into CFTR cDNA cloned in the pcDNA5 expression vector. After confirmation by Sanger sequencing, CFBE41o^− cells expressing HS-YFP seeded onto 96-well plates were transfected with 0.1 µg per well of the indicated plasmid. […]
as §4

The target of the next experiment is T4, p.Ser549Arg-CFTR (Homo sapiens, UniProt P13569, S549R).
T4 construct: expressed in transfected cells; host or cells: CFBE41o- cells stably expressing HS-YFP, transient transfection of pcDNA5-CFTR
T4 sequence (P13569 whole entry S549R): as the sequence (P13569 whole entry S945L) above, with S549R, L945S counted along it
Description: HS-YFP assay, CFBE41o- cells transiently transfected with p.Ser549Arg-CFTR. Particulars: c.1645A>C or c.1647T>G, Fsk 5 μM. As for the experimental part:
as §1, §4, §3

For a further experiment, the target named is T5, p.Arg334Trp-CFTR (Homo sapiens, UniProt P13569, R334W).
T5 construct: expressed in transfected cells
T5 sequence (P13569 whole entry R334W): as the sequence (P13569 whole entry S945L) above, with R334W, L945S counted along it
Put plainly: HS-YFP assay on a plate reader (CFTR-mediated I- influx), CFBE41o- cells co-expressing HS-YFP and p.Arg334Trp-CFTR. Here is the method: Parental CFBE41o^− cells stably expressing HS-YFP (p.His148Gln-Ile152Leu) were cultured in minimum essential medium (MEM, #10-010-CV, Corning, VA, USA) supplemented with 10% fetal bovine serum (#LTI 10270-106, Gibco, Carlsbad, CA, USA). CFBE41o^− cells stably co-expressing HS-YFP (p.Phe46Leu-His148Gln-Ile152Leu) and p.Arg334Trp-CFTR were cultured in a similar medium including 2 µg mL^−1 puromycin (#P8833, Sigma-Aldrich, St. Louis, MO, USA). For the YFP assay of CFTR activity, cells were plated (30,000 cells/well) on 96-well clear-bottom, black-walled microplates (#655090, Greiner Bio-One, Kremsmünster, Austria). All cells were maintained in a humidified incubator (5% CO2) at 37 °C.
as §2
All the compounds (Scheme 1) were tested in CFBE41o^− cells co-expressing HS-YFP and p.Arg334Trp-CFTR to assess CFTR-mediated I^− influx based on fluorescence quenching. The cells were incubated for 30 min with Fsk (an adenyl cyclase activator that increases intracellular cAMP levels) plus the test compounds in two different concentrations (3 and 20 μM). Thereafter, the efficacy of the compounds in rescuing CFTR activity was determined by the YFP quenching rate and normalized to DMSO (negative control). […] Such an increase was equivalent to that of the cells treated with VX-770 or apigenin (used as positive controls).
Next, the active compounds were submitted for further analysis for evaluation of their potency and efficacy. To this aim, the compounds were retested as potentiators at various concentrations in the range 0.16–30 μM with Fsk on CFBE41o^− cells.

T1 sequence (P13569 whole entry G1349D): as the sequence (P13569 whole entry S945L) above, with L945S, G1349D counted along it
T2 sequence (P13569 whole entry G551D): as the sequence (P13569 whole entry S945L) above, with G551D, L945S counted along it

With `CCOC(=O)c1ccc(-n2cc(C(O)c3ccc(Br)cc3)nn2)cc1` (stereo not shown) [LSO-150], the “Fluorescence quenching rate, effect in combination(s) with VX-770 or ABBV-3067” value at p.Gly1349Asp-CFTR (LSO-24 5 μM or LSO-150 3 μM added to VX-770 1 μM or ABBV-3067 10 μM) is recorded as “no effect”. The “Fluorescence quenching rate, single compound” value at p.Gly1349Asp-CFTR (LSO-24 5 μM, LSO-150 3 μM, VX-770 1 μM, ABBV-3067 10 μM) was “no effect”. The “CFTR activity (fluorescence quenching rate), single compound” value at p.Gly551Asp-CFTR is “increased CFTR activity”; at p.Ser945Leu-CFTR it was “increased CFTR activity”; at p.Ser549Arg-CFTR (LSO-24 5 μM, LSO-150 3 μM), “increased CFTR activity”. For the same molecule, the “Net effect with co-administration of ABBV-3067” value at p.Ser549Arg-CFTR (+ ABBV-3067 10 μM) is recorded as “increased”. Also, the “Net effect with co-administration of VX-770” value at p.Ser549Arg-CFTR (+ VX-770 1 μM) is on record as “increased”. In addition, the EC50 on p.Arg334Trp-CFTR (CFBE41o- cells, with Fsk, concentrations 0.16–30 μM, read-out: EC50 (potentiation of p.Arg334Trp-CFTR activity)) was 1.01 µM. Further, the “Fluorescence quenching rate in combination with ABBV-974” value at p.Arg334Trp-CFTR (LSO-150 3 μM or LSO-153 5 μM + ABBV-974 10 μM, Fsk 5 μM, vs single potentiator) is listed as “further increase in the fluorescence quenching rate”. On p.Arg334Trp-CFTR (LSO-150 3 μM or LSO-153 5 μM + ABBV-3067 10 μM, Fsk 5 μM, vs single potentiator), the “Fluorescence quenching rate in combination with ABBV-3067” value is “further increase in the fluorescence quenching rate”. Besides, the “Fluorescence quenching rate in combination with VX-770” value on p.Arg334Trp-CFTR (LSO-150 3 μM or LSO-153 5 μM + VX-770 1 μM, Fsk 5 μM, vs single potentiator) is recorded as “further increase in the fluorescence quenching rate”. In addition, the “Fluorescence quenching rate in combination with apigenin” value on p.Arg334Trp-CFTR (LSO-150 3 μM or LSO-153 5 μM + apigenin 50 μM, Fsk 5 μM, vs single potentiator) is listed as “equivalent cell-fluorescence quenching rate to that of each compound individually”. Besides, the “CFTR-mediated I- influx (YFP quenching rate normalized to DMSO)” value at p.Arg334Trp-CFTR (test compound 3 and 20 μM, 30 min with Fsk 5 μM, vs DMSO) is “increase in CFTR-mediated I^− influx”.
